US5185320A, “O^56 -alkyl derivatives of aglycone and pseudo aglycones of teicoplanin” (Gruppo Lepetit S.p.A., priority 1989, dated 1993)

What was measured:
Format in all cases: cell-based
Conditions in all cases: inoculum about 10^4 CFU/ml, 18-24 h at 37° C.
[1] = system: Neisseria gonorrhoeae ISM68/126; test: MIC, standard dilution test, Neisseria gonorrhoeae ISM68/126
Protocol: (§1) ISOSENSITEST broth (Oxoid) and TOLLD-HEWITT broth (Difco) are used for growing staphylococci and streptococci, respectively. Broth cultures are diluted so that the final inoculum is about 10^4 colony forming units/ml (CFU/ml).

[2] = system: Pseudomonas aeruginosa ATCC 10145; test: MIC, standard dilution test, Pseudomonas aeruginosa ATCC 10145
Protocol: as §1

[3] = system: Escherichia coli SKF 12140; test: MIC, standard dilution test, Escherichia coli SKF 12140
Protocol: as §1

[4] = system: Strep. pyogenes C 203; test: MIC, standard dilution test, Strep. pyogenes C 203
Protocol: as §1

[5] = system: Staph. epidermidis ATCC 12228; test: MIC, standard dilution test, Staph. epidermidis ATCC 12228
Protocol: as §1

[6] = system: Proteus vulgaris ATCC 881; test: MIC, standard dilution test, Proteus vulgaris ATCC 881
Protocol: as §1

[7] = system: Haemophilus influenzae ATCC 19418; test: MIC, standard dilution test, Haemophilus influenzae ATCC 19418
Protocol: as §1

[8] = system: Strep. faecalis ATCC 7080; test: MIC, standard dilution test, Strep. faecalis ATCC 7080
Protocol: as §1

[9] = system: Strep. mitis L 796; test: MIC, standard dilution test, Strep. mitis L 796
Protocol: as §1

[10] = system: Strep. pneumoniae UC41; test: MIC, standard dilution test, Strep. pneumoniae UC41
Protocol: as §1

[11] = system: Staph. haemolyticus L 602; test: MIC, standard dilution test, Staph. haemolyticus L 602
Protocol: as §1

[12] = system: Staph. aureus Tour L 165; test: MIC, standard dilution test, Staph. aureus Tour L 165
Protocol: as §1

Compound	Minimal inhibitory concentration (MIC) [1]	Minimal inhibitory concentration (MIC) [2]	Minimal inhibitory concentration (MIC) [3]	Minimal inhibitory concentration (MIC) [4]	Minimal inhibitory concentration (MIC) [5]	Minimal inhibitory concentration (MIC) [6]	Minimal inhibitory concentration (MIC) [7]	Minimal inhibitory concentration (MIC) [8]	Minimal inhibitory concentration (MIC) [9]	Minimal inhibitory concentration (MIC) [10]	Minimal inhibitory concentration (MIC) [12]	Minimal inhibitory concentration (MIC) [11]
COC(=O)C1NC(=O)C2NC(=O)C(NC(=O)C3NC(=O)C4NC(=O)C(Cc5ccc(c(Cl)c5)Oc5cc3cc(c5OCCCCN3C(=O)c5ccccc5C3=O)Oc3ccc(cc3Cl)C2O)NC(=O)C(N)c2ccc(O)c(c2)Oc2cc(O)cc4c2)c2ccc(O)c(c2)-c2c(O)cc(O)cc21.Cl (stereo not shown) [Compound 2, O^56-[4(N-phthalimido)butyl]deglucoteicoplanin methyl ester]	> 128	> 128	> 128	0.125	2	> 128	> 128	4	0.125	0.125	2	4
COC(=O)C1NC(=O)C2NC(=O)C(NC(=O)C3NC(=O)C4NC(=O)C(Cc5ccc(c(Cl)c5)Oc5cc3cc(c5OC(CCO)C(=O)O)Oc3ccc(cc3Cl)C2O)NC(=O)C(N)c2ccc(O)c(c2)Oc2cc(O)cc4c2)c2ccc(O)c(c2)-c2c(O)cc(O)cc21.Cl (stereo not shown) [Compound 3, O^56-(1-carboxy-3-hydroxypropyl)deglucoteicoplanin methyl ester hydrochloride]	64	> 128	> 128	0.125	0.25	> 128	> 128	0.125	0.25	0.125	0.5	2
COC(=O)C1NC(=O)C2NC(=O)C(NC(=O)C3NC(=O)C4NC(=O)C(Cc5ccc(c(Cl)c5)Oc5cc3cc(c5OC(CCO)C(=O)NCCN)Oc3ccc(cc3Cl)C2O)NC(=O)C(N)c2ccc(O)c(c2)Oc2cc(O)cc4c2)c2ccc(O)c(c2)-c2c(O)cc(O)cc21.Cl (stereo not shown) [Compound 4, O^56-[1-[[2-aminoethylamino]carbonyl]3-hydroxypropyl]deglucoteicoplanin methyl ester hydrochloride]	64	64	16	0.063	0.125	128	128	0.25	0.125	0.25	0.125	0.5
COC(=O)C1NC(=O)C2NC(=O)C(NC(=O)C3NC(=O)C4NC(=O)C(Cc5ccc(c(Cl)c5)Oc5cc3cc(c5OCCCCN(CCN(C)C)CCN(C)C)Oc3ccc(cc3Cl)C2O)NC(=O)C(N)c2ccc(O)c(c2)Oc2cc(O)cc4c2)c2ccc(O)c(c2)-c2c(O)cc(O)cc21 (stereo not shown) [Compound 6, O^56-[4-[bis[2-(dimethylamino)ethyl]amino]butyl]deglucoteicoplanin methyl ester]	128	> 128	16	0.032	0.25	> 128	–	0.5	0.125	0.25	0.25	0.5
CNC(=O)C1NC(=O)C2NC(=O)C(NC(=O)C3NC(=O)C4NC(=O)C(Cc5ccc(c(Cl)c5)Oc5cc3cc(c5OCCCCN)Oc3ccc(cc3Cl)C2O)NC(=O)C(N)c2ccc(O)c(c2)Oc2cc(O)cc4c2)c2ccc(O)c(c2)-c2c(O)cc(O)cc21 (stereo not shown) [Compound 9, O^56-(4-aminobutyl)-deglucoteicoplanin methylamide]	64	64	8	0.063	0.125	32	64	0.125	0.125	0.125	0.25	0.25
COC(=O)CNC(=O)CNCCOc1c2cc3cc1Oc1ccc(cc1Cl)C(O)C1NC(=O)C(NC(=O)C3NC(=O)C3NC(=O)C(Cc4ccc(c(Cl)c4)O2)NC(=O)C(N)c2ccc(O)c(c2)Oc2cc(O)cc3c2)c2ccc(O)c(c2)-c2c(O)cc(O)cc2C(C(=O)OCCBr)NC1=O (stereo not shown) [Compound 18, O^56-[2-[2-[(2-methoxy-2-oxoethyl)amino]-2-oxoethylamino]ethyl]deglucoteicoplanin 2-bromoethyl ester]	–	> 128	> 128	0.125	–	> 128	–	–	–	–	0.13	2
NC1C(=O)NC2Cc3ccc(c(Cl)c3)Oc3cc4cc(c3OCCO)Oc3ccc(cc3Cl)C(O)C3NC(=O)C(NC(=O)C4NC(=O)C(NC2=O)c2cc(O)cc(c2)Oc2cc1ccc2O)c1ccc(O)c(c1)-c1c(O)cc(O)cc1C(C(=O)OCCO)NC3=O (stereo not shown) [Compound 22, O^56-(2-hydroxyethyl)deglucoteicoplanin 2-hydroxyethyl ester]	–	–	32	0.125	–	–	–	–	–	–	0.06	0.5

More lines, main results first:

Minimal inhibitory concentration (MIC) [1]	Minimal inhibitory concentration (MIC) [2]	Minimal inhibitory concentration (MIC) [3]	Minimal inhibitory concentration (MIC) [4]	Minimal inhibitory concentration (MIC) [5]	Minimal inhibitory concentration (MIC) [6]	Minimal inhibitory concentration (MIC) [7]	Minimal inhibitory concentration (MIC) [8]	Minimal inhibitory concentration (MIC) [9]	Minimal inhibitory concentration (MIC) [10]	Minimal inhibitory concentration (MIC) [12]	Compound	Minimal inhibitory concentration (MIC) [11]
64	> 128	32	0.063	0.063	64	64	0.5	0.25	0.125	0.125	COC(=O)C1NC(=O)C2NC(=O)C(NC(=O)C3NC(=O)C4NC(=O)C(Cc5ccc(c(Cl)c5)Oc5cc3cc(c5OCC3CO3)Oc3ccc(cc3Cl)C2O)NC(=O)C(N)c2ccc(O)c(c2)Oc2cc(O)cc4c2)c2ccc(O)c(c2)-c2c(O)cc(O)cc21.Cl (stereo not shown) [Compound 1, O^56-(2,3-epoxypropyl)deglucoteicoplanin methyl ester]	1
–	32	8	0.063	0.125	32	–	0.125	0.125	0.125	0.125	COC(=O)C1NC(=O)C2NC(=O)C(NC(=O)C3NC(=O)C4NC(=O)C(Cc5ccc(c(Cl)c5)Oc5cc3cc(c5OCCCCN)Oc3ccc(cc3Cl)C2O)NC(=O)C(N)c2ccc(O)c(c2)Oc2cc(O)cc4c2)c2ccc(O)c(c2)-c2c(O)cc(O)cc21 (stereo not shown) [Compound 5, O^56-(4-aminobutyl)deglucoteicoplanin methyl ester]	0.5
> 128	> 128	> 128	0.125	0.5	> 128	64	2	0.25	0.125	0.125	COC(=O)C1NC(=O)C2NC(=O)C(NC(=O)C3NC(=O)C4NC(=O)C(Cc5ccc(c(Cl)c5)Oc5cc3cc(c5OCCCl)Oc3ccc(cc3Cl)C2O)NC(=O)C(N)c2ccc(O)c(c2)Oc2cc(O)cc4c2)c2ccc(O)c(c2)-c2c(O)cc(O)cc21 (stereo not shown) [Compound 7, O^56-(2-chloroethyl) deglucoteicoplanin methyl ester]	1
32	> 128	32	0.063	0.125	> 128	64	0.125	0.125	0.125	0.125	COC(=O)C1NC(=O)C2NC(=O)C(NC(=O)C3NC(=O)C4NC(=O)C(Cc5ccc(c(Cl)c5)Oc5cc3cc(c5OCCO)Oc3ccc(cc3Cl)C2O)NC(=O)C(N)c2ccc(O)c(c2)Oc2cc(O)cc4c2)c2ccc(O)c(c2)-c2c(O)cc(O)cc21 (stereo not shown) [Compound 8, O^56-(2-hydroxyethyl) deglucoteicoplanin methyl ester]	2
